Key:
Assay type in all cases: in vivo, mouse
bile acid mixture = assay: Hydrophobicity index (HIx) of bile acid mixtures in liver, serum and feces; details: male mice
Text: In general, bile acid toxicity increases with hydrophobicity, [39], which depends on ionization, hydroxylation, and conjugation (taurine, glycine, sulfate, glucoronate)[40]. The potential toxicity of a bile acid mixture can be estimated by calculating the hydrophilic-hydrophobic balance using the hydrophobicity index (HIx) of each bile acid species in the mixture, as described by Heuman[41]. […] Consequently, the shift towards increased hydrophobicity is primarily driven by a decrease in the relative abundance of T-α-MCA, a highly hydrophilic species.

Abcc4 = assay: Hepatic RNA-Seq differential gene expression (fold change, P1(t), ED50, BMD, BMDL); details: C57BL/6, mouse, liver, oral; male mice, 30 µg/kg TCDD every 4 d for 28 d
Method: (§1) Frozen ileal epithelium scrapings and liver samples were homogenized in TRIzol (Ambion, Waltham, MA) using a Mixer Mill 300 tissue homogenizer (Retsch, Germany) and total RNA was isolated as previously described. RNA was quantified using a Nano-drop spectrophotometer (Thermo Scientific, Wilmington, DE) at 260 nm, and purity was assessed using the A260/A280 ratio and the Caliper LabChip GX (Perkin Elmer, Waltham, MA).
(§2) Dose-dependent gene expression was examined using RNA-Seq performed at the MSU Research Technology Support Facility (RTSF) Genomics Core (rtsf.natsci.msu.edu/genomics). Ileal libraries from three independent biological replicates (n = 3) were prepared using the Ovation Mouse RNA-Seq System 1–16 sample preparation kit (NuGen, San Carlos, CA), with an additional DNase step. Libraries were quantified and sequenced as previously described, using a read depth of ~30 M per sample[33], [67]. Quality was determined using FASTQC v0.11.3 and adaptor sequences were removed using Trimmomatic v0.33. Reads were mapped to the mouse reference genome (GRCm38 release 81) using Bowtie2 v2.2.6 and TopHat2 v2.1.0. Alignments were converted to SAM format using SAMTools v1.2.0. For TCDD-mediated differential gene expression, fold changes were calculated relative to vehicle controls. Hepatic RNA-Seq analysis was previously published. Genes were considered differentially expressed if |fold change| ≥ 1.5 and statistical P1(t) value ≥ 0.8 at one or more doses. RNA-Seq datasets for the ileal epithelium and liver were deposited in the Gene Expression Omnibus (GEO; accession number GSE89430 and GSE87519, respectively). The RNA-Seq results (fold changes, P1(t) values) for each gene discussed in the manuscript have been compiled in Supplementary Table S1. […] Estimation of benchmark dose (BMD) and BMD lower confidence limit (BMDL) was performed using BMDExpress[69] as previously described, and has been included in Supplementary Table S1.

serum ALP = assay: Serum alkaline phosphatase (ALP) activity, commercial kit; details: male mice, 30 µg/kg TCDD every 4 d for 28 d
Method: At 25d after the initial dose (PND53), fecal pellets from the previous 24 hours (h) were collected from each cage (4 mice per cage) and stored at −80 °C. At 28d after the initial exposure (PND56), mice (fasted for 6 h) were weighed and blood was collected from the submandibular vein prior to cervical dislocation. The gallbladder length, width, and depth were measured using a micro-caliper. Its volume was calculated assuming an ellipsoid shape: volume (µL) = length (mm) × width (mm) × depth (mm) × π/6[63], [64]. The distal ileum (10 cm section extending from the caecum toward the jejunum) was removed, flushed with Ca^2+/Mg^2+-free phosphate buffered saline (PBS; Sigma), and opened longitudinally. The epithelial lining was scraped into a vial containing TRIzol (Invitrogen, Carlsbad, CA), frozen in liquid nitrogen, and stored at −80 °C. Liver, gonadal white adipose tissue (gWAT), and brown adipose tissue were removed, weighed, frozen in liquid nitrogen, and stored at −80 °C. Serum alkaline phosphatase (ALP) activity was determined using a commercial kit (Pointe Scientific, Canton, MI).

Slc51a = assay: Ileal epithelium RNA-Seq differential gene expression (fold change, P1(t), ED50, BMD, BMDL); design: key to Cyp3a44 P1(t)_30: statistical P1(t) value; differentially expressed if ≥ 0.8; details: C57BL/6, mouse, ileal epithelium, oral; male mice, TCDD every 4 d for 28 d
Method: as §1, §2

Slc10a2 = assay: as above; design: key to Cyp3a44 P1(t)_30: statistical P1(t) value; differentially expressed if ≥ 0.8; details: C57BL/6, mouse, ileal epithelium, oral; male mice, TCDD every 4 d for 28 d
Method: as §1, §2

ileal gene expression = assay: as above; design: key to Cyp3a44 P1(t)_30: statistical P1(t) value; differentially expressed if ≥ 0.8
Method: as §1, §2

[1] = ileum, 0.01 µg/kg TCDD, relative to vehicle control
[2] = ileum, 0.03 µg/kg TCDD, relative to vehicle control
[3] = ileum, 0.1 µg/kg TCDD, relative to vehicle control
[4] = ileum, 0.3 µg/kg TCDD, relative to vehicle control
[5] = ileum, 1 µg/kg TCDD, relative to vehicle control
[6] = ileum, 3 µg/kg TCDD, relative to vehicle control
[7] = ileum, 10 µg/kg TCDD, relative to vehicle control
[8] = ileum, 30 µg/kg TCDD, relative to vehicle control
[9] = male mice, TCDD every 4 d for 28 d

Clc1cc2c(cc1Cl)Oc1cc(Cl)c(Cl)cc1O2 [TCDD, 2,3,7,8-tetrachlorodibenzo-p-dioxin]
Shift of fecal bile acid mixture HIx (bile acid mixture; feces, TCDD): moderate increase in hydrophobicity
Shift of hepatic bile acid mixture HIx (bile acid mixture; liver, 3–30 µg/kg TCDD every 4 d for 28 d): toward greater hydrophobicity
Shift of serum bile acid mixture HIx (bile acid mixture; serum, TCDD every 4 d for 28 d): more hydrophilic
fold induction at 28 d (Abcc4): 58.1
Serum alkaline phosphatase (ALP) activity (serum ALP): unchanged
fold induction at 28 d (Slc51a): 1.5
fold induction at 28 d (Slc10a2): 1.6
Cyp3a44 BMD (ileal gene expression; ileum): 36.49 µg/kg TCDD
Cyp3a44 BMDL (ileal gene expression; ileum): 18.80 µg/kg TCDD
Cyp3a44 Differentially Expressed? (ileal gene expression; ileum): YES
Cyp3a44 ED50 (ileal gene expression; ileum): Not sigmoidal
Fgf15 BMD (ileal gene expression; ileum): No model fit
Fgf15 BMDL (ileal gene expression; ileum): No model fit
Fgf15 Differentially Expressed? (ileal gene expression; ileum): YES
Fgf15 ED50 (ileal gene expression; ileum): 9.00 µg/kg TCDD
Slc10a2 (ASBT or IBAT) BMD (ileal gene expression; ileum): 5.66 µg/kg TCDD
Slc10a2 (ASBT or IBAT) BMDL (ileal gene expression; ileum): 0.69 µg/kg TCDD
Slc10a2 (ASBT or IBAT) Differentially Expressed? (ileal gene expression; ileum): YES
Slc10a2 (ASBT or IBAT) ED50 (ileal gene expression; ileum): 0.98 µg/kg TCDD
Slc51a (OSTα) BMD (ileal gene expression; ileum): No model fit
Slc51a (OSTα) BMDL (ileal gene expression; ileum): No model fit
Slc51a (OSTα) Differentially Expressed? (ileal gene expression; ileum): YES
Slc51a (OSTα) ED50 (ileal gene expression; ileum): 0.89 µg/kg TCDD
Cyp3a44 P1(t)_0.01 (ileal gene expression; ileum, 0.01 µg/kg TCDD): -0.1316
Cyp3a44 FC_0.01 (ileal gene expression; [1]): 0.91
Fgf15 FC_0.01 (ileal gene expression; [1]): 0.81
Slc10a2 (ASBT or IBAT) FC_0.01 (ileal gene expression; [1]): 0.93
Slc51a (OSTα) FC_0.01 (ileal gene expression; [1]): 0.98
Slc51b (OSTβ) FC_0.01 (ileal gene expression; [1]): 0.88
Cyp3a44 P1(t)_0.03 (ileal gene expression; ileum, 0.03 µg/kg TCDD): 0.0640
Cyp3a44 FC_0.03 (ileal gene expression; [2]): 0.80
Fgf15 FC_0.03 (ileal gene expression; [2]): 0.63
Slc10a2 (ASBT or IBAT) FC_0.03 (ileal gene expression; [2]): 0.93
Slc51a (OSTα) FC_0.03 (ileal gene expression; [2]): 0.96
Slc51b (OSTβ) FC_0.03 (ileal gene expression; [2]): 0.87
Cyp3a44 P1(t)_0.1 (ileal gene expression; ileum, 0.1 µg/kg TCDD): -0.1090
Cyp3a44 FC_0.1 (ileal gene expression; [3]): 0.89
Fgf15 FC_0.1 (ileal gene expression; [3]): 0.85
Slc10a2 (ASBT or IBAT) FC_0.1 (ileal gene expression; [3]): 0.92
Slc51a (OSTα) FC_0.1 (ileal gene expression; [3]): 0.98
Slc51b (OSTβ) FC_0.1 (ileal gene expression; [3]): 0.88
Cyp3a44 P1(t)_0.3 (ileal gene expression; ileum, 0.3 µg/kg TCDD): 0.6027
Cyp3a44 FC_0.3 (ileal gene expression; [4]): 0.61
Fgf15 FC_0.3 (ileal gene expression; [4]): 1.12
Slc10a2 (ASBT or IBAT) FC_0.3 (ileal gene expression; [4]): 0.74
Slc51a (OSTα) FC_0.3 (ileal gene expression; [4]): 1.07
Slc51b (OSTβ) FC_0.3 (ileal gene expression; [4]): 0.88
Cyp3a44 P1(t)_1 (ileal gene expression; ileum, 1 µg/kg TCDD): 0.5083
Cyp3a44 FC_1 (ileal gene expression; [5]): 0.65
Fgf15 FC_1 (ileal gene expression; [5]): 1.50
Slc10a2 (ASBT or IBAT) FC_1 (ileal gene expression; [5]): 1.19
Slc51a (OSTα) FC_1 (ileal gene expression; [5]): 1.30
Slc51b (OSTβ) FC_1 (ileal gene expression; [5]): 0.90
Cyp3a44 P1(t)_3 (ileal gene expression; ileum, 3 µg/kg TCDD): -0.1130
Cyp3a44 FC_3 (ileal gene expression; [6]): 1.12
Fgf15 FC_3 (ileal gene expression; [6]): 1.99
Slc10a2 (ASBT or IBAT) FC_3 (ileal gene expression; [6]): 1.22
Slc51a (OSTα) FC_3 (ileal gene expression; [6]): 1.46
Slc51b (OSTβ) FC_3 (ileal gene expression; [6]): 0.95
Cyp3a44 P1(t)_10 (ileal gene expression; ileum, 10 µg/kg TCDD): 0.9033
Cyp3a44 FC_10 (ileal gene expression; [7]): 0.46
Fgf15 FC_10 (ileal gene expression; [7]): 0.51
Slc10a2 (ASBT or IBAT) FC_10 (ileal gene expression; [7]): 1.38
Slc51a (OSTα) FC_10 (ileal gene expression; [7]): 1.34
Slc51b (OSTβ) FC_10 (ileal gene expression; [7]): 0.93
Cyp3a44 P1(t)_30 (ileal gene expression; ileum, 30 µg/kg TCDD): 0.7035
Cyp3a44 FC_30 (ileal gene expression; [8]): 0.58
Fgf15 FC_30 (ileal gene expression; [8]): 0.10
Slc10a2 (ASBT or IBAT) FC_30 (ileal gene expression; [8]): 1.59
Slc51a (OSTα) FC_30 (ileal gene expression; [8]): 1.15
Slc51b (OSTβ) FC_30 (ileal gene expression; [8]): 0.79
Cyp3a44 ileal expression, fold repression (ileal gene expression; [9]): 2.2 fold
Slc51b ileal expression (ileal gene expression; [9]): unchanged

Reference: publication PMC5517430, “2,3,7,8-Tetrachlorodibenzo-p-dioxin (TCDD)-elicited effects on bile acid homeostasis: Alterations in biosynthesis, enterohepatic circulation, and microbial metabolism” (Scientific Reports, 2017)
